In PubChem BioAssay AID1645862 (Buhrlage Lab, Dana-Farber Cancer Institute and Novartis …, 2021) one finds IC50 data, which are given here for 57 compounds.

Each structure is given as a SMILES string. Activity calls are given as the source filed them. The rule behind the calls is not given here. A value given as a limit tells only on which side of the number the result lay.

The target in the experiment is Ubiquitin carboxyl-terminal hydrolase 8 (Homo sapiens) (UniProt P40818). As to the kind of experiment: Ubiquitin-specific protease 8 inhibitors, concentration-effect, biochemical, validation of initial actives (AID 1645862).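 Note: potency reflects inhibition of USP8 cleavage of a ubiquitin rhodamine substrate.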 The settings on record: recombinant USP8 deubiquitinase activity assay.
Chain of Ubiquitin carboxyl-terminal hydrolase 8 (Homo sapiens) (P40818 whole entry, looked up): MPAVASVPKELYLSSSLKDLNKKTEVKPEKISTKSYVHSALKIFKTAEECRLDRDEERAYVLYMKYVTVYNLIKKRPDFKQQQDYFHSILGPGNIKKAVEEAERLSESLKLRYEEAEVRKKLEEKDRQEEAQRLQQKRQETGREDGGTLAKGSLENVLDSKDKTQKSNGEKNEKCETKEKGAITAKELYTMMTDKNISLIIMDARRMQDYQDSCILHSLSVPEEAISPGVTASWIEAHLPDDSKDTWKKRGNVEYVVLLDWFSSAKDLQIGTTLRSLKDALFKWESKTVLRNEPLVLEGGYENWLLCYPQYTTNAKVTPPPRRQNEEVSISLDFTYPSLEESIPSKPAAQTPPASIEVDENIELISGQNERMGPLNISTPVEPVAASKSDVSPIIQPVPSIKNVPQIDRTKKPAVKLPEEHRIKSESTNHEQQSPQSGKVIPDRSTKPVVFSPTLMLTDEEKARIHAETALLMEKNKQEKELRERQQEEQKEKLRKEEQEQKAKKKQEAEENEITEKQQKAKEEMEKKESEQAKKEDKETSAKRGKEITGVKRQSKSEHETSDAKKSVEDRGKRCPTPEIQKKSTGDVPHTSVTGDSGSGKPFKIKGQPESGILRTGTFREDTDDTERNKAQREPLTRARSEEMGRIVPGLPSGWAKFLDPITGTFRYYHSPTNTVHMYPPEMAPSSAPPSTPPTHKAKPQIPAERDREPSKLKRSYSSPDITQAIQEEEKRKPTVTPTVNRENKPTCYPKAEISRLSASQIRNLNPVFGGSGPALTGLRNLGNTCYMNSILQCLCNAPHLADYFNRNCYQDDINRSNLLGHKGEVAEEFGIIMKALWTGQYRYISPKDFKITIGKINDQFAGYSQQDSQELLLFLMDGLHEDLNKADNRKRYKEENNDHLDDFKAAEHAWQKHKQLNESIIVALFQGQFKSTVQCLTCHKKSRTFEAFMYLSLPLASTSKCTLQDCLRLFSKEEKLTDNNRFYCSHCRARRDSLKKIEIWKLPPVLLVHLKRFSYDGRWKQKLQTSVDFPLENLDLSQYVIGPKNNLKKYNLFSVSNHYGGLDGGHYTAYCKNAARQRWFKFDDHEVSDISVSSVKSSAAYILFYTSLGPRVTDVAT

Take `Cc1ccc(NC(=O)Nc2ccc(C)n(CC(=O)Nc3cc(C)ccc3C)c2=O)cc1`: the IC50 was > 40 µM (inactive). Next, `COc1ccc(CNC(=O)CN2C(=O)CC(c3ccccc3)=Nc3ccccc32)cc1`: > 40 µM (inactive). Regarding `CN(C)c1ccc(CNC(=O)c2nnc(C(=O)Nc3ccccc3)s2)cc1`, the IC50 was > 40 µM (inactive). Turning to `CCC(=O)Nc1nc2cc(NC(=O)Nc3ccc(C)cc3)ccc2s1`, the IC50 is > 40 µM (inactive).

Consider `CN(C)[C@@H]1C(=O)C(C(N)=O)=C(O)[C@@]2(O)C(=O)C3=C(O)c4c(O)cccc4[C@@](C)(O)C3[C@H](O)[C@@H]12` (some centres not stated), for which the IC50 was 0.702 µM.

Turning to `CCC(=O)Nc1nc2cc(NC(=O)Nc3cc(C)cc(C)c3)ccc2s1`, the IC50 was > 40 µM (inactive). Regarding `COCCNC(=O)Cn1c(=O)n(Cc2ccc(C(=O)NCc3ccc(C)cc3)cc2)c(=O)c2ccccc21`, the IC50 was > 40 µM (inactive). For the compound `CC(C)=CCOC(C)(C)[C@H]1OC2CC[C@@]3(C)C(CCC4Cc5c([nH]c6ccccc56)[C@@]43C)C23OC3[C@@H]1O` (some centres not stated), the IC50 is 35 µM.

Turning to `CSc1ccc(C(=O)Nc2nc(-c3ccncc3)cs2)cc1`, the IC50 was > 40 µM (inactive).

As to `COc1ccc(Nc2nc3c(S(=O)(=O)c4ccc(C)cc4)nnn3c3ccsc23)c(OC)c1`, the IC50 is > 40 µM (inactive). Regarding `Cn1c(=O)c2ncnnc2n(C)c1=O`, the IC50 is 0.717 µM. Turning to `O=C(Cn1c(=O)c2sccc2n(CC(=O)OCc2ccccc2)c1=O)NCc1ccccc1Cl`, the IC50 is > 40 µM (inactive). The figure for `O=C(NCc1ccco1)c1ccc(Cn2c(SCc3ccccc3)nc3ccncc32)cc1` is > 40 µM (inactive); for `COc1cc(NC(=O)Cn2c(=O)n(-c3ccc(CC(=O)NCc4ccco4)cc3)c(=O)c3ccccc32)cc(OC)c1` it is > 40 µM (inactive).

Turning to `O=C(NC1(O)C(=O)c2ccccc2C1=O)c1cccc2c1-c1ccccc1C2=O`, the IC50 was 6.52 µM. As to `COc1ccc(NC2c3ccccc3C(=O)N2c2ccccn2)cc1` (configuration not stated), the IC50 was > 40 µM (inactive). Take `CCOc1ccc(-n2c(=O)c3sccc3n(CC(=O)Nc3cccc(C)c3)c2=O)cc1`: the IC50 is > 40 µM (inactive). Take `COc1ccccc1C(=O)Nc1ccc(Oc2ncnc3sc(-c4ccccc4)cc23)cc1`: the IC50 was > 40 µM (inactive). Regarding `CCOc1ccc(-n2ccnc(SCC(=O)Nc3ccccc3F)c2=O)cc1`, the IC50 was > 40 µM (inactive).

Turning to `O=C(COc1ccc(Cl)cc1Cl)Nc1ccc2[nH]c(=O)[nH]c2c1`, the IC50 is > 40 µM (inactive). Next, `N#Cc1ccc(NC(=O)Nc2cccn(Cc3ccccc3Br)c2=O)cc1`: > 40 µM (inactive); `Cc1nc(N2CCN(c3ccc(Cl)cc3)CC2)c2oc3ccccc3c2n1`: > 40 µM (inactive). With `COc1ccc(CC(=O)OCC(=O)N2c3ccccc3NC(=O)C2(C)C)cc1`, the IC50 is > 40 µM (inactive). Regarding `Cc1cc2nc(SCC(=O)c3ccc(O)cc3)[nH]c2cc1C`, the IC50 is > 40 µM (inactive). The figure for `Cn1cc(-c2nc(C(=O)Nc3ccc(C#N)cc3)cs2)c2cccnc21` is > 40 µM (inactive). In the case of `O=C(CCc1ccc(F)cc1)N1CCOC(CCc2cc(=O)[nH]cn2)C1` (configuration not stated), the IC50 was > 40 µM (inactive). Consider `O=C(Cc1ccc(-n2c(=O)c3ccccc3n(Cc3cccc(F)c3)c2=O)cc1)NC1CCCC1`, for which the IC50 is > 40 µM (inactive). With `N#Cc1cccc(NC(=O)Cn2cccc2-c2nc(-c3ccccc3)no2)c1`, the IC50 was > 40 µM (inactive).

For `COc1cc(/C=C/C(=O)OCC(=O)Nc2ccc([N+](=O)[O-])cc2OC)ccc1O`, the IC50 was 26.3 µM.

`Cc1cc(NS(=O)(=O)c2ccc(NC(=O)c3ccc(N4CCCC4)c([N+](=O)[O-])c3)cc2)no1`: the IC50 is > 40 µM (inactive).

As to `COC(=O)c1ccc(N2CCN(C(C)=O)CC2)c(NC(=O)COc2ccc([N+](=O)[O-])cc2)c1`, the IC50 was > 40 µM (inactive). For `O=C(CC1C(=O)Nc2nc(-c3ccccc3)nn21)Nc1cccc2ccccc12` (configuration not stated), the IC50 is > 40 µM (inactive).

`Cc1c(-c2nn3c(-c4ccco4)nnc3s2)cccc1[N+](=O)[O-]`: the IC50 is > 40 µM (inactive). Turning to `Cn1c(=O)n([C@@H](Cc2ccccc2)C(=O)N[C@@H](C(=O)O)c2ccc(O)cc2)c(=O)c2ccccc21`, the IC50 is > 40 µM (inactive). On to `COc1cc(Cn2cnc3c([nH]c4ccc(Br)cc43)c2=O)cc(OC)c1`, for which the IC50 was > 40 µM (inactive). With `Cc1cccc(NC(=O)CNC(=O)c2ccc(-c3noc(C4CCCC4)n3)cc2)c1C`, the IC50 was > 40 µM (inactive). Consider `O=C(Cn1cc(C(=O)C(F)(F)F)c2cc(Br)ccc21)N1CCc2ccccc21`, for which the IC50 was > 40 µM (inactive). In the case of `O=C(NCCc1cccnc1)c1ccn(-c2ccc3ccccn23)n1`, the IC50 was > 40 µM (inactive). The figure for `COc1ccc(CNC(=O)c2ccc3c(=O)nc4c(-c5cccc(C)c5)n[nH]n4c3c2)cc1` is > 40 µM (inactive); for `Cc1noc(-c2ccnc(-n3cnc(C(=O)NCC4CC4)c3)c2)n1` it is > 40 µM (inactive). Next, `CCOC(=O)c1ccc(NC(=O)Cn2c(=O)n(CC(=O)NCc3ccco3)c(=O)c3ccccc32)cc1`: > 40 µM (inactive); `Cc1ccccc1NC(=O)Cn1c(=O)n(-c2ccc(CC(=O)NCCc3ccccc3)cc2)c(=O)c2sccc21`: 36.8 µM. As for `c1ccc2sc(-c3csc(-c4ccc5c(c4)OCCO5)n3)nc2c1`, the IC50 is > 40 µM (inactive). On to `COc1cc(Cl)c(NC(=O)c2cc(-c3ccccn3)n[nH]2)c(OC)c1`, for which the IC50 was > 40 µM (inactive). On to `Cc1ccc2c(c1)c(=O)c(C(=O)c1ccccc1)cn2CC(=O)Nc1ccccc1`, for which the IC50 was 27.5 µM. The figure for `Cn1cc(NC(=O)Nc2cccc3ccccc23)c2ccccc21` is > 40 µM (inactive); for `Cc1ccc(N2CC(c3nnc(NC(=O)CCc4ccccc4)s3)CC2=O)cc1` (configuration not stated) it is > 40 µM (inactive). In the case of `COc1ccc(-c2ccc3cc(C(=O)O)ccc3c2)cc1C12CC3CC(CC(C3)C1)C2`, the IC50 is 8.03 µM. Take `O=C(Cn1c(-c2ccccc2)ncc(C(=O)NC2CC2)c1=O)Nc1ccccc1`: the IC50 is > 40 µM (inactive). For the compound `Cc1ccc(NC(=O)Nc2ccc(C)n(CC(=O)Nc3ccc(C)c(C)c3)c2=O)cc1`, the IC50 was 39.2 µM. For the compound `O=c1[nH]c(C2CCN(S(=O)(=O)c3ccc(S(=O)(=O)NC4CCCC4)cc3)CC2)nc2c1nnn2Cc1cccc(Cl)c1`, the IC50 was > 40 µM (inactive).

As to `CSc1cccc(NC(=O)C2C3C=CC4(O3)C2C(=O)N(CCc2ccccc2)C4C(=O)NC2CCCCC2)c1` (configuration not stated), the IC50 is > 40 µM (inactive).

Turning to `COc1ccc(-c2cc(C(=O)Nc3ccnn3Cc3ccccc3)no2)cc1`, the IC50 was > 40 µM (inactive). Take `O=C1CC(c2ccccc2)n2ncnc2N1` (configuration not stated): the IC50 is > 40 µM (inactive). With `Cc1csc(NC(=O)c2c[nH]c3ccc(F)cc3c2=O)n1`, the IC50 is > 40 µM (inactive). As to `Cc1ccc(-c2cnc(C3CC3)o2)cc1S(=O)(=O)Nc1ccc(F)c(Cl)c1`, the IC50 was > 40 µM (inactive). For `O=C(Nc1ccccc1C(=O)NC1CCSC1)c1ccc([N+](=O)[O-])cc1` (configuration not stated), the IC50 is > 40 µM (inactive).

One may read the IC50 as the concentration needed to halve the response being measured.
